Measured values from paper PMC9452538, “The antimicrobial peptide LI14 combats multidrug-resistant bacterial infections” (Communications Biology, 2022).
Values after ≈ are worked out from the molar mass of the structure shown.

Columns and labels:
MRSA 1518 = assay: microbe, parasite or virus in culture; type: cell-based, Staphylococcus aureus; settings: Staphylococcus aureus; MRSA 1518; MHB, 16-18 h, 37 °C; read-out: MIC
Experimental: (§1) An antimicrobial activity study was conducted on all peptides against a panel of laboratory bacteria, including ATCC source and clinical isolates with resistance determinants. According to CLSI2021 guidelines, we tested the minimum inhibitory concentrations (MICs) of peptides using standard broth micro-dilutions. Briefly, bacteria grown to exponential phase were diluted in 1:1000 to MHB, subsequently, equivalent amounts of bacterial suspension (1.5 × 10^6 CFUs/mL) were mixed with different concentrations of peptides in a sterilized 96-well microtiter plate (Corning).

MRSA 1530 = assay: microbe, parasite or virus in culture; type: cell-based, Staphylococcus aureus; settings: Staphylococcus aureus; MRSA 1530; MHB, 16-18 h, 37 °C; read-out: MIC
Experimental: as §1

[1] = test system: sensitive E. coli ATCC 25922; assay: Checkerboard assay with LI14; type: cell-based, Escherichia coli
[2] = test system: tigecycline-resistant E. coli B3-1; assay: Checkerboard assay with LI14; type: cell-based, Escherichia coli
P. aeruginosa PA14 = assay: microbe, parasite or virus in culture; type: cell-based, Pseudomonas aeruginosa; settings: Pseudomonas aeruginosa, PA14
Experimental: as §1

MRSA T144 = assay: microbe, parasite or virus in culture; type: cell-based, Staphylococcus aureus; settings: Staphylococcus aureus; MRSA T144; MHB, 16-18 h, 37 °C; read-out: MIC
Procedure, shortened: (§2)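 Broth microdilution per CLSI 2021 guidelines. Exponential-phase bacteria were diluted 1:1000 into MHB, and 1.5 × 10^6 CFUs/mL suspension was mixed with serially varied peptide concentrations to determine MIC.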

S. aureus ATCC 29213 = assay: microbe, parasite or virus in culture; type: cell-based, Staphylococcus aureus; settings: Staphylococcus aureus, ATCC29213
Procedure, shortened: as §2

A. baumannii ATCC 19609 = assay: microbe, parasite or virus in culture; type: cell-based, Acinetobacter baumannii; settings: Acinetobacter baumannii, ATCC19609; A. baumannii ATCC 19609; MHB, 16-18 h, 37 °C; read-out: MIC
Experimental: as §1

[3] = test system: A. baumannii C222 (tet(X6)); assay: microbe, parasite or virus in culture; type: cell-based, Acinetobacter baumannii; settings: Acinetobacter baumannii; A. baumannii C222 (tet(X6)); MHB, 16-18 h, 37 °C; read-out: MIC
Experimental: as §1

[4] = test system: E. coli B2 (blaNDM-5 + mcr-1); assay: microbe, parasite or virus in culture; type: cell-based, Escherichia coli; settings: Escherichia coli; E. coli B2 (blaNDM-5 + mcr-1); MHB, 16-18 h, 37 °C; read-out: MIC
Procedure, shortened: as §2

E. coli ATCC 25922 = assay: microbe, parasite or virus in culture; type: cell-based, Escherichia coli; settings: Escherichia coli, ATCC25922
Procedure, shortened: as §2

[5] = test system: E. coli DH5α (PUC19-blaNDM-1); assay: MIC broth microdilution; type: cell-based; settings: Escherichia coli
Experimental: as §1

[6] = test system: E. coli DH5α (PUC19-blaNDM-9); assay: MIC broth microdilution; type: cell-based; settings: Escherichia coli
Experimental: as §1

[7] = test system: E. coli DH5α (PUC19-tet(X4)); assay: MIC broth microdilution; type: cell-based; settings: Escherichia coli
Experimental: as §1

[8] = test system: E. coli DH5α (PUC19-blaNDM-5); assay: MIC broth microdilution; type: cell-based; settings: Escherichia coli
Experimental: as §1

E. faecium 5F-10 = assay: microbe, parasite or virus in culture; type: cell-based, Enterococcus faecium; settings: Enterococcus faecium, 5F10
Experimental: as §1

[9] = test system: E. faecalis A4 (VRE, VanA); assay: microbe, parasite or virus in culture; type: cell-based; settings: Enterococcus faecalis, VRE
Experimental: as §1

E. faecalis 1F-1 = assay: microbe, parasite or virus in culture; type: cell-based; settings: Enterococcus faecalis, 1F1; E. faecalis 1F-1; MHB, 16-18 h, 37 °C; read-out: MIC
Experimental: as §1

[10] = test system: S. enteritidis ATCC 13076; assay: microbe, parasite or virus in culture; type: cell-based; settings: Salmonella enterica
Experimental: as §1

S. aureus G16 (RIF^R) = assay: MIC broth microdilution; type: cell-based, Staphylococcus aureus; settings: Staphylococcus aureus
Experimental: as §1

[11] = test system: S. aureus 215 (cfr + LZD^R); assay: MIC broth microdilution; type: cell-based, Staphylococcus aureus; settings: Staphylococcus aureus
Experimental: as §1

[12] = test system: E. coli DH5α (PUC19-mcr-1); assay: MIC broth microdilution; type: cell-based, Escherichia coli; settings: Escherichia coli
Experimental: as §1

E. coli DH5α (PUC19) = assay: MIC broth microdilution; type: cell-based, Escherichia coli; settings: Escherichia coli; engineered E. coli DH5α (PUC19); MHB, 16-18 h, 37 °C; read-out: MIC
Experimental: as §1

[13] = test system: K. pneumoniae D120 (mcr-8); assay: microbe, parasite or virus in culture; type: cell-based, Klebsiella pneumoniae; settings: Klebsiella pneumoniae; K. pneumoniae D120 (mcr-8); MHB, 16-18 h, 37 °C; read-out: MIC
Experimental: as §1

[14] = test system: K. pneumoniae ATCC 700603; assay: microbe, parasite or virus in culture; type: cell-based, Klebsiella pneumoniae; settings: Klebsiella pneumoniae, ATCC700603; K. pneumoniae ATCC 700603; MHB, 16-18 h, 37 °C; read-out: MIC
Experimental: as §1

[15] = test system: P. cibarius HNCF44W (blaNDM-1 + tet(X6)); assay: organism not typed; type: cell-based; settings: P. cibarius HNCF44W (blaNDM-1 + tet(X6)); MHB, 16-18 h, 37 °C; read-out: MIC
Experimental: as §1

E. coli G92 (mcr-1) = assay: microbe, parasite or virus in culture; type: cell-based, Escherichia coli; settings: Escherichia coli; E. coli G92 (mcr-1); MHB, 16-18 h, 37 °C; read-out: MIC
Experimental: as §1

E. coli G6 (blaNDM-5) = assay: microbe, parasite or virus in culture; type: cell-based, Escherichia coli; settings: Escherichia coli; E. coli G6 (blaNDM-5); MHB, 16-18 h, 37 °C; read-out: MIC
Experimental: as §1

E. coli 1F28 (tet(X4)) = assay: microbe, parasite or virus in culture; type: cell-based, Escherichia coli; settings: Escherichia coli; E. coli 1F28 (tet(X4)); MHB, 16-18 h, 37 °C; read-out: MIC
Experimental: as §1

E. coli B3-1 (tet(X4)) = assay: microbe, parasite or virus in culture; type: cell-based, Escherichia coli; settings: Escherichia coli; E. coli B3-1 (tet(X4)); MHB, 16-18 h, 37 °C; read-out: MIC
Experimental: as §1

E. coli C3 (blaNDM-1) = assay: microbe, parasite or virus in culture; type: cell-based, Escherichia coli; settings: Escherichia coli; E. coli C3 (blaNDM-1); MHB, 16-18 h, 37 °C; read-out: MIC
Experimental: as §1

E. coli CP131 (mcr-3) = assay: microbe, parasite or virus in culture; type: cell-based, Escherichia coli; settings: Escherichia coli; E. coli CP131 (mcr-3); MHB, 16-18 h, 37 °C; read-out: MIC
Experimental: as §1

[16] = antibiotic in combination with LI14, checkerboard
[17] = in the presence of ¼ MIC of LI14

## CN(C)c1cc(NC(=O)CNC(C)(C)C)c(O)c2c1C[C@H]1C[C@H]3[C@H](N(C)C)C(O)=C(C(N)=O)C(=O)[C@@]3(O)C(O)=C1C2=O [Tigecycline]
MRSA 1518
  MIC: 0.25 µg/mL (≈ 0.427 µM)
MRSA 1530
  MIC: 1 µg/mL (≈ 1.71 µM)
[1]; [16]
  FIC index: 0.5
[1]; in the absence of LI14
  MICa of antibiotic: 0.063 µg/mL
[1]; [17]
  MICb of antibiotic: 0.016 µg/mL
  Potentiation: 4 fold
[2]; [16]
  FIC index: 0.125
[2]; in the absence of LI14
  MICa of antibiotic: 32 µg/mL
[2]; [17]
  MICb of antibiotic: 2 µg/mL
  Potentiation: 16 fold
P. aeruginosa PA14
  MIC: < 0.0625 µg/mL
MRSA T144
  MIC: 0.25 µg/mL (≈ 0.427 µM)
S. aureus ATCC 29213
  MIC: 0.125 µg/mL (≈ 0.213 µM)
A. baumannii ATCC 19609
  MIC: 0.25 µg/mL (≈ 0.427 µM)
[3]
  MIC: 64 µg/mL (≈ 109 µM)
[4]
  MIC: 2 µg/mL
E. coli ATCC 25922
  MIC: 0.125 µg/mL (≈ 0.213 µM)
[5]
  MIC: 1 µg/mL (≈ 1.71 µM)
[6]
  MIC: 1 µg/mL (≈ 1.71 µM)
[7]
  MIC: 64 µg/mL (≈ 109 µM)
[8]
  MIC: 1 µg/mL (≈ 1.71 µM)
E. faecium 5F-10
  MIC: < 0.0625 µg/mL
[9]
  MIC: < 0.0625 µg/mL
E. faecalis 1F-1
  MIC: 16 µg/mL (≈ 27.3 µM)
[10]
  MIC: 0.125 µg/mL (≈ 0.213 µM)
S. aureus G16 (RIF^R)
  MIC: < 0.0625 µg/mL
[11]
  MIC: 0.25 µg/mL (≈ 0.427 µM)
[12]
  MIC: 1 µg/mL (≈ 1.71 µM)
E. coli DH5α (PUC19)
  MIC: 1 µg/mL (≈ 1.71 µM)
[13]
  MIC: 0.25 µg/mL (≈ 0.427 µM)
[14]
  MIC: 0.5 µg/mL (≈ 0.854 µM)
[15]
  MIC: 64 µg/mL
E. coli G92 (mcr-1)
  MIC: 4 µg/mL (≈ 6.83 µM)
E. coli G6 (blaNDM-5)
  MIC: 2 µg/mL (≈ 3.41 µM)
E. coli 1F28 (tet(X4))
  MIC: 16 µg/mL (≈ 27.3 µM)
E. coli B3-1 (tet(X4))
  MIC: 32 µg/mL (≈ 54.6 µM)
E. coli C3 (blaNDM-1)
  MIC: 2 µg/mL (≈ 3.41 µM)
E. coli CP131 (mcr-3)
  MIC: 2 µg/mL (≈ 3.41 µM)
